The target of one data set is T1, human CYP11B2 enzyme (Homo sapiens, UniProt P19099).
T1 construct: the ORF of human CYP11B1 or CYP11B2 were transfected into G402 cells; expressed in transfected cells
T1 sequence (P19099 25-503): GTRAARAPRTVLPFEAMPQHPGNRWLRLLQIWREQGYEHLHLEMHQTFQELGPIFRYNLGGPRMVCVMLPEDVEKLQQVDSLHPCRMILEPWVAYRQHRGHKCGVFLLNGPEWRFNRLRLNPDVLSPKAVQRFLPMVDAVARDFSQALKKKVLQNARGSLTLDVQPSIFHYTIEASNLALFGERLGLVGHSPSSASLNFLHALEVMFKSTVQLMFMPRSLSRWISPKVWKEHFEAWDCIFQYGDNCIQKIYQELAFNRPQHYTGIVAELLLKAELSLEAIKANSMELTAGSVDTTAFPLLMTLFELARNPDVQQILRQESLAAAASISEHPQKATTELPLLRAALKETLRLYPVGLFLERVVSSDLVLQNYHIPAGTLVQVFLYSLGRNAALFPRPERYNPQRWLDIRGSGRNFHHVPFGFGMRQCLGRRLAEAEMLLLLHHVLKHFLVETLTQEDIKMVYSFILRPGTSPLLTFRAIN
The experiment in a line: Enzyme inhibition activity assay in G402 cells stably expressing human CYP11B2 (aldosterone production from 11-DOC, LC/MS). In kind it is cell-based. Conditions: 1 µM 11-DOC, 16 hours, aldosterone detected. The method in brief:
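G402 cells stably expressing human CYP11B2 or CYP11B1, preincubated 1 h with inhibitor in DMEM/F12 plus 2.5% charcoal-stripped FCS, then 16 h with 1 µM 11-DOC or 1 µM 11-DC. Aldosterone or cortisol quantified by LC/MS; IC50 from four-parameter logistic fit versus uninhibited control.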

Data set [1] can be described thus: Pharmacokinetic determination in monkeys after gavage administration (P.O.). In kind it is in vivo, Cynomolgus monkeys (Macaca fascicularis). Conditions: cynomolgus monkey, po, 1 mg/kg, plasma. The protocol:
Cynomolgus monkeys (Macaca fascicularis) were used as test animals to study the pharmacokinetic behavior of the compounds of the present disclosure in plasma following gavage administration (P.O.). Plasma samples were collected at specific time points, compound concentrations in plasma were detected by LC-MS/MS, and pharmacokinetic parameters were calculated to reflect the pharmacokinetics in cynomolgus monkeys.
Cynomolgus monkeys, male, Ankaiyibo (Zhanjiang) Biotechnology Co., Ltd.
After administration to cynomolgus monkeys, venous blood samples of 0.3 mL were collected at 0.25, 0.5, 1, 2, 4, 8, and 24 hours and placed in EDTA-K2 test tubes. Plasma was separated by centrifugation at 4 °C, 4000 g for 5 minutes and stored at -80 °C.
• 1) 50 µL of plasma sample was precipitated by adding 200 µL of acetonitrile, vortex mixed, and centrifuged for 15 minutes. • 2) The processed supernatant was diluted with water and analyzed by LC/MS/MS to determine the concentration of the test compound.
Pharmacokinetic parameters were calculated using WinNonlin 8.3. Cmax represents the maximum plasma concentration, T1/2 represents the terminal elimination half-life, MRTInf represents the mean residence time, and AUC represents the area under the plasma concentration-time curve. Table 6 Pharmacokinetic Parameters of the Compounds of the Present Disclosure in Monkeys

The nature of a further data set: in vivo. Particulars: rat, in vivo, po, 10 mg/kg.

2 compounds from patent EP4806899A1, “FUSED RING DERIVATIVE, PREPARATION METHOD THEREFOR AND USE THEREOF IN MEDICINE” (Shanghai Qilu Pharmaceutical Research and Development …, priority 2023, dated 2025) can be followed below.

By IC50 is commonly meant the concentration that gives 50% inhibition. Broadly, the Cmax is the highest concentration seen after dosing. One may read the MRT inf as a mean duration of stay, worked out from the concentration-time curve. The term half-life denotes the time in which the quantity being followed falls by half.

Procedure for in vivo: Mice and rats were used as test animals to study the pharmacokinetic behavior of the compounds of the present disclosure in plasma following gavage administration (P.O.). Plasma samples were collected at specific time points, compound concentrations in plasma were detected by LC-MS/MS, and pharmacokinetic parameters were calculated to evaluate the pharmacokinetics.
• Mice, CD-1, male, Zhejiang Vital River Laboratory Animal Technology Co., Ltd. • Rats, Sprague-Dawley, male, Zhejiang Vital River Laboratory Animal Technology Co., Ltd., Shanghai Jihui Experimental Animal Breeding Co., Ltd.
After administration to mice and rats, venous blood samples of 0.03 mL and 0.2 mL, respectively, were collected at 0.0833 (IV), 0.25, 0.5, 1, 2, 4, 8, and 24 hours and placed in EDTA-K2 test tubes. Plasma was separated by centrifugation at 4 °C, 4000 g for 5 minutes and stored at -80 °C.
Pharmacokinetic parameters were calculated using WinNonlin 8.3. […] Cmax represents the maximum plasma concentration, T1/2 represents the terminal elimination half-life, MRTInf represents the mean residence time, and AUC represents the area under the plasma concentration-time curve.

In turn, `[2H]C([2H])([2H])OC(=O)N[C@@H]1CCOc2c(-c3cc(F)c4c(ccc(=O)n4C)c3)cncc21` [Compound A50] displayed an IC50 against human CYP11B2 enzyme of 0.0111 µM. Further, in data set [1] (male), the highest level (Cmax) was 1.14 µM, the MRT inf amounted to 13 h and the half-life was 10.5 h. The AUC(0-t) in data set [1] (male, read-out: AUC0-24) stood at 13.5 µM·h.
At human CYP11B2 enzyme, `CCC(=O)N[C@@H]1CCOc2c(-c3ccc4c(c3)CCC(=O)N4C)cncc21` [Compound A02-P2] returned an IC50 of 0.0123 µM. Besides, in data set [1] (in vivo), the highest concentration (Cmax) amounted to 1.6 µM, the MRT inf was 8.77 h and the half-life is 7.44 h. Moreover, the AUC(0-t) at 24 h in data set [1] (in vivo, read-out: AUC0-24) was found to be 12.8 µM·h. In the data set “in vivo”, this compound gave an AUC(0-t) at 24 h of 190 µM·h, a Cmax of 22.7 µM, an MRT inf of 5.3 h and a half-life of 3.47 h.
